Experimental data published in patent US20090191177A1, “Enantiomerically Pure (-) 2-[1-(7-methyl-2-(morpholin-4-yl)-4-oxo-4H-pyrido[1,2-A]pyrimidin-9-yl)ethylamino]benzoic Acid, Its Use In Medical Therapy, And A Pharmaceutical Composition Comprising It - 026” (priority 2008, published 2009).

System: washed platelets
Test: Washed Platelet Aggregation (WPA), CD9 antibody-induced
Format: cell-based
Details: washed platelets from healthy volunteers, aggregation induced by mouse anti-human CD9 antibody
Procedure: Blood was collected from healthy volunteers by venipuncture using a Venflon needle 1.5*45 mm (17 GA, 1.77 IN). The first 2 ml of blood was discarded prior to collecting aliquotes into tubes containing acid citrate dextrose (ACD). One volume of ACD is required for six volumes of blood.
The anticoagulated blood was centrifuged for 15 min at 240×g to obtain platelet rich plasma (PRP). PRP was transferred to a new tube and centrifuged for 15 min at 2200×g. The supernatant was discarded and the platelet pellet re-suspended to […] in Tyrodes buffer (TB) containing 1 μM hirudin and 0.02 U/mL apyrase. The platelet suspension was left to rest at room temperature for 30 min. Just prior to time for assay, CaCl2 was added to a final concentration of 2 mM. The Compound, or wortmannin, was dissolved in DMSO and added to a 96 well plate prior to the addition of the washed platelet suspension. The platelet suspension was preincubated with inhibitor for 5 min. Light absorption at 650 nm was recorded before and after a 5 min plate shake and referred to as recording 0 (R0) and R1. A mouse anti-human CD9 antibody was added (at a donor specific concentration) to each well prior to next 10 min plate shake and light absorption recording; R2.
A concentration response for CD9 antibody-induced aggregation in the absence or presence of 1 μM wortmannin (complete PI3K inhibition) was performed in each washed platelet suspension prior to testing of the Compound. The CD9 antibody concentration with the largest dependence of PI3K inhibition was chosen for the test.
Light absorbance in wells with TB were subtracted from all readings before percent aggregation was calculated according the formula: [(R1−R2)/R1]×100=% aggregation. Spontaneous aggregation or pro-aggregatory effect of the inhibitor was evaluated by the same formula, [(R0−R1)/R0]×100=% aggregation.

Compound	IC50 [nM]	IC50 (Homo sapiens, Platelet) [nM]
Cc1cc(C(C)Nc2ccccc2C(=O)O)c2nc(N3CCOCC3)cc(=O)n2c1 (single isomer, unassigned; (+)) [Ex. 2, (+) 2-[1-(7-Methyl-2-(morpholin-4-yl)-4-oxo-4H-pyrido[1,2-a]pyrimidin-9-yl)ethylamino]benzoic acid]	1650	
Cc1cc(C(C)Nc2ccccc2C(=O)O)c2nc(N3CCOCC3)cc(=O)n2c1 (racemic) [WO2004016607, 2-[1-(7-Methyl-2-(morpholin-4-yl)-4-oxo-4H-pyrido[1,2-α]pyrimidin-9-yl)ethylamino]benzoic acid, reference compound]		10
Cc1cc(C(C)Nc2ccccc2C(=O)O)c2nc(N3CCOCC3)cc(=O)n2c1 (single isomer, unassigned; (-)) [Ex. 1, (−) 2-[1-(7-Methyl-2-(morpholin-4-yl)-4-oxo-4H-pyrido[1,2-a]pyrimidin-9-yl)ethylamino]benzoic acid]	6	
